Like-named read-outs stand apart in the source and are kept apart here. Values belong to the molecule of their own block, whether it stands above or below them.
Experiments:
[1] = system: ryegrass (Lolium multiflorum); assay: Dose-response bioassay with ryegrass; type: in vivo; conditions: 168 h, 7 days
Description: A filter paper and 5 lettuce or 10 mg of creeping bentgrass seeds were placed in each well of a 24-well plate. Stock solutions (10×) of test compounds were prepared in acetone. 180 μl of distilled water were added to each well together with 20 μl of stock solution or acetone in solvent control. Final concentration of acetone was 10% v/v. Plates were sealed with Parafilm, and incubated at 26° C. in a growth chamber set at 173 μmol m^−2 s^−1 continuous photosynthetically active radiation. Phytotoxic activity was qualitatively evaluated by visually comparing germination in each well with solvent control at 7 days. A qualitative estimation of phytotoxicity was obtained by using a rating scale of 0 to 5, where 0 was no effect, and 5 was no germination of seeds. This procedure was also used for testing the phytotoxicity of pure compounds on ryegrass. On this experiment 12-well plates were used. 10 seeds were placed per well and final volume was 300 μl in each one. During dose-response bioassays used for IC50 determination, germination percentage and length of plants were measured at 7 days in order to determine the concentration required for 50% germination and growth inhibition (IC50). All experiments were done in triplicate.
Using method described in Example 1, compounds of Formula III and IV above were tested against lettuce and ryegrass.
The percentage of germination and length of plants were determined at 7 days. Data represents means of three replicates±SD. The IC50 values, for both germination and growth inhibition by compounds III and IV on lettuce and ryegrass, were obtained from estimated parameters in the regression curves.
(§1) Statistical Analysis. Data from dose-response experiments were analyzed by a log-logistic model^37-38 using the dose-response curve module^39 of R software version 2.2.1.^40 Concentrations required for 50% germination or growth inhibition relative to control (IC50 values) were obtained from estimated parameters in the regression curves. The standard error (SE) of each estimation is provided. Data from phytotoxicity bioassays in the laboratory and greenhouse, ROS and cell death quantifications were analyzed by ANOVA using the InfoStat statistical software version 2015,^41 and Scheffe's test was employed to compare the means at α=0.05.

[2] = system: duckweed (Lemna paucicostata); assay: Dose-response bioassay with duckweed; type: in vivo; conditions: frond area increase between days 1 and 7, read-out: IC50 (μM) ± SE, duckweed growth inhibition
Description: Phytotoxic activity of compounds of formula III and IV above as evaluated on duckweed. Duckweed stocks were grown from a single colony consisting of a mother and two daughter fronds in a beaker on modified Hoagland media (Table 3 below). The medium was adjusted to pH 5.5 with 1 M NaOH and filtered through a 0.2 μm filter. Each well of non-pyrogenic polystyrene sterile 6-well plates was filled with 4.950 ml of Hoagland media and, 50 μl of distilled water, 50 μl of acetone in solvent control or 50 μl of acetone containing the appropriate concentration of test compound. The final concentration of acetone was 1% v/v. Two, three-frond colonies from 4 to 5 d-old stock cultures were placed in each well. Plates were placed in an incubator with white light (94.2 μE m^−2 s^−1). Total frond area per well was recorded by the Scanalyzer (LemnaTec, Germany) image analysis system from days 0 to 7. Percentage of increase between days 1 and 7 was determined relative to baseline area at day zero.
Percentage of increase between days 1 and 7 was determined relative to baseline area at day zero. Data represents means of three replicates±SD.
as §1

[3] = system: cucumber cotyledon disks; assay: Electrolyte leakage assay; type: cell-based; conditions: for destabilization of cell membranes, electrolyte leakage / electrolyte leakage versus boiled positive control: 100 and 300 μM; for electrolyte leakage versus boiled positive control: 16 h dark plus 26 h of high light intensity
Description: The effects of pure furanochromones, compounds of formulas III and IV (Sigma Aldrich), on membrane stability were studied as described by Dayan and Watson.^23 Cucumber cotyledon disks were exposed to each furanochromone at 100 and 300 μM. Control tissues were exposed to the same solvent as treated tissues but without the compounds. Conductivity measurements were carried out at the beginning of the dark incubation period, a second measurement was made after 16 h, at which time the samples were placed under high light intensity, and final measurements were made after 8 and 26 h of light exposure. Each experiment consisted of three replicates. Maximum conductivity was measured by boiling three samples of each treatment for 20 min. To study if electrolyte leakage caused by compounds of formulas III and IV was light-dependent, two sets of Petri plates were prepared with cucumber cotyledon disks exposed to test compounds and control in both. One set was treated as described before (dark 16 h/light 26 h) while the other one was kept in darkness for 42 h. Conductivity measurements were done at the indicated times.

[4] = system: cucumber cotyledon disks; assay: Photosynthetic efficiency (chlorophyll fluorescence, ETR); type: cell-based; conditions: after 24 h of incubation in the light (42 h total)
Description: The effects of pure compounds of formulas III and IV were evaluated by chlorophyll fluorescence measurements according to Dayan and Zaccaro.^24 Cucumber cotyledon disks were exposed to different dilutions of each furanochromone (10, 30, 100 and 300 μM). Control tissues were exposed to the same solvent as treated tissues but without the test compounds. The cotyledon disks were incubated in darkness for 18 h before exposure to light for 24 h. Photosynthetic quantum yield and electron transport rate (ETR) were measured. ETR values were expressed as percent of the ETR average values observed in control treatments. A time-course experiment was performed by measuring induced fluorescence of cotyledon disks after treatment at 3 h in darkness (start), after 18 h in darkness, after which the samples were placed in the light, and further measurements were made after 6 and 24 h of light exposure. The results of this experiment are shown in FIG. 16 (A: khellin [compound of formula III] and B: visnagin [compound of formula IV]). Three replicates were performed for each experiment. Bars represent, from left to right in each grouping, start, 18 h dark, 6 h light, and 24 h light.

[5] = read-out: IC50(μM) ± SE to inhibit germination
[6] = read-out: IC50(μM) ± SE to inhibit growth

- IC50 [1, 5]: 637 ± 112 µM
Compound: COc1c2occc2c(OC)c2c(=O)cc(C)oc12 [Formula III, 4,9-dimethoxy-7-methyl-5H-furo[3,2-g]chromen-5-one]
- IC50 [1, 6]: 244 ± 37 µM
- IC50 ([2]; Lemna aequinoctialis): 160 µM
- IC50 [2]: 162 ± 29 µM
- destabilization of cell membranes, electrolyte leakage [3]: significant electrolyte leakage
- electrolyte leakage versus boiled positive control [3]: comparable to the positive control
- reduction of electron transport rate (ETR) ([4]; 100 μM): ~35%
- reduction of electron transport rate (ETR) ([4]; 300 μM): ~50%

Compound: COc1c2ccoc2cc2oc(C)cc(=O)c12 [Formula IV, 4-methoxy-7-methyl-5H-furo[3,2-g]chromen-5-one]
- IC50 [1, 5]: 502 ± 115 µM
- IC50 [1, 6]: 214 ± 23 µM
- IC50 ([2]; Lemna aequinoctialis): 120 µM
- IC50 [2]: 122 ± 28 µM
- electrolyte leakage ([3]; 100 μM, after 8 h in the light): caused electrolyte leakage
- destabilization of cell membranes, electrolyte leakage [3]: significant electrolyte leakage
- electrolyte leakage versus boiled positive control [3]: comparable to the positive control
- reduction of electron transport rate (ETR) ([4]; 100 μM): ~35%
- reduction of electron transport rate (ETR) ([4]; 300 μM): ~50%
